Test system: human umbilical vein endothelial cells (HUVECs)
Experiment: SWELL1, pAKT2 and p-eNOS western blots in HUVECs
Format: cell-based
Details: 96 h
Procedure: HUVECs were purchased from ATCC (CRL-2922^TM) and were grown in M199 growth media supplemented with 20% FBS, 0.05 g Heparin Sodium Salt (Alfa Aesar), and 15 mg ECGS (Millipore Sigma). Cells were cultured on 1% of gelatin-coated plates at 37 °C and 5% CO2. For SN-40X stimulated eNOS and AKT signaling assays, HUVECs were treated for 96 h with the respective compounds and serum-starved overnight (+DMSO or +SN-40X) for 16 h in M199 media plus 1% FBS (Atlanta Biological). After the serum starve, HUVECs were returned to normal growth media for 30 min (+DMSO or +SN-40X) prior to lysate collection. Small interfering RNA (siRNA) mediated knockdown was adapted from Koh et. al., 2008[81]. Briefly, HUVECs were transfected with either a silencer select siRNA with si-SWELL1 (Cat#4392420, sense: […] antisense: […], Invitrogen) or a non-targeting control silencer select siRNA (Cat# 4390846, Invitrogen) upon reaching 90–95% confluency. siRNA was transfected twice, 24 and 72 h after initial seeding of HUVECs. Each siRNA was combined with Opti-MEM (285.25 µl, Cat#11058-021, Invitrogen) siPORT™ amine (8.75 µl, Cat#AM4503, Invitrogen), and the silencer select siRNA (6 µl) in a final volume of 300 µl. HUVECs were transfected for 4 h at 37 °C in 1% FBS containing DMEM media. For short hairpin RNA (shRNA) mediated knockdown approach, HUVECs were transduced with either human adenovirus type 5 targeting SWELL1 (Ad5-shSWELL1) or scrambled non-targeting control (Ad5-shSCR) at a multiplicity of infection (MOI) of 50 for 24 h at 37 °C upon reaching 70% confluency. The cells were then washed with DMEM media and transduced a second time, with a fresh virus, with an MOI of 25 for 12 h at 37 °C. After the final transduction step, the cells were serum-starved as described above for HUVECs, and lysates were collected. The SN-40X compounds were present in the culture media throughout the transfection/transduction for both the si/sh RNA mediated knockdown approaches. HEK-293 (ATCC, #CRL-1573™) cells were maintained in 90% DMEM (25 mM D-Glucose and 4 mM L-Glutamine) containing 10% fetal bovine serum (FBS) and 100 IU penicillin and 100 µg/ml streptomycin.
Adipocytes were washed twice in ice-cold phosphate buffer saline and lysed in RIPA buffer (150 mM NaCl, 20 mM HEPES, 1% NP-40, 5 mM EDTA, pH 7.4) with proteinase/phosphatase inhibitors (Roche). The cell lysate was further sonicated in 10 s cycle intervals 2–3 times and centrifuged at 18,407×g for 30 min at 4 °C and repeated one more time to remove the excess fat. The supernatant was collected and further estimated for protein concentration using a DC protein assay kit (Bio-Rad). Fat and liver tissues were homogenized and suspended in RIPA buffer with inhibitors and further processed in a similar fashion as described above. HUVECs were also prepared in a similar fashion except the lysates were spun only once to remove the cells debris to obtain the clear supernatant. For islets, either human or mouse islets were washed twice with phosphate buffer saline (PBS) and lysed using RIPA buffer containing protease and phosphatase inhibitors. The lysate was further clarified by freezing in liquid nitrogen for about 10 s for three cycles. The supernatant was collected from the whole lysate centrifuged at 16,260×g for 20 min at 4 °C. […] For soleus muscle, the tissue was homogenized in a Bullet Blender homogenizer (Speed-9, Time-3 mins) in 8 volumes of ice-cold muscle homogenization buffer (50 mM Tris, 25 mM NaCl, 0.2% Nonidet P-40, 5 mM EGTA, 2.5 mM EDTA, 20 mM NaF, 20 mM Na4P2O7·10H2O, 2 mM Na3VO4, pH 7.4) supplemented with protease/phosphatase inhibitor (Roche). The homogenized lysate was centrifuged two times at 18,500×g for 20 min at 4 °C and supernatant was collected for protein estimation. Protein samples were further prepared by boiling in 2X or 4X Laemmli buffer. […]

## CCCCC1(C2CCCC2)Cc2cc(OCC(=O)O)c(Cl)c(Cl)c2C1=O (stereo not drawn) [Inactive 1, 2-((2-butyl-6,7-dichloro-2-cyclopentyl-1-oxo-2,3-dihydro-1H-inden-5-yl)oxy)acetic acid]
500 nM
  effect on SWELL1, pAKT2 and p-eNOS: no effect

## CCCCC1(C2CCCC2)Cc2cc(OCCCC(=O)O)c(Cl)c(Cl)c2C1=O (stereo not drawn) [SN-401, 4-((2-butyl-6,7-dichloro-2-cyclopentyl-1-oxo-2,3-dihydro-1H-inden-5-yl)oxy)butanoic acid]
500 nM
  eNOS phosphorylation (Ser1177): increases
Different concentrations
  dose dependence of p-eNOS induction: dose-dependent induction of p-eNOS in HUVECs that saturates beyond 100 nM

## CCCCC1(C2CCCC2)Cc2cc(OCCCCCC(=O)O)c(Cl)c(Cl)c2C1=O (stereo not drawn) [SN-406, 6-((2-butyl-6,7-dichloro-2-cyclopentyl-1-oxo-2,3-dihydro-1H-inden-5-yl)oxy)hexanoic acid]
100 nM
  SWELL1 induction compared to vehicle: 1.5 fold
  basal pAKT2 induction compared to vehicle: 2.8 fold
  p-eNOS induction compared to vehicle: 5.5 fold

— publication PMC8831520, “Small molecule SWELL1 complex induction improves glycemic control and nonalcoholic fatty liver disease in murine Type 2 diabetes” (Nature Communications, 2022)
